T1: Benzylmalonyl-CoA dehydrogenase (IaaF) (Aromatoleum aromaticum, UniProt Q5P5Z9)
T1 construct: fusion protein of IaaF with a N-terminal Strep-tag
T1 sequence (Q5P5Z9 1-377): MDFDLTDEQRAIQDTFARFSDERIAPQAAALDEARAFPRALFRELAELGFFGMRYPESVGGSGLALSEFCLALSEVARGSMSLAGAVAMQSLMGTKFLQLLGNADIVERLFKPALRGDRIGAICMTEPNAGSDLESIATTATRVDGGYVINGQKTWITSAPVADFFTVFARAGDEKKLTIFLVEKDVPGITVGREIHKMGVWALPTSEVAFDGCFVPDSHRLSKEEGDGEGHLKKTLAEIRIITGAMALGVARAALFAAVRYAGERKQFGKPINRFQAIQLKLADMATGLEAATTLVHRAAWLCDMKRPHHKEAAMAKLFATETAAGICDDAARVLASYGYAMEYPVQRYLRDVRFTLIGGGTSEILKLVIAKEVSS


Assays:
[1] = target: T1, Benzylmalonyl-CoA dehydrogenase (IaaF); test: product formation by HPLC and UV-Vis with purified enzyme; type: biochemical
purified protein = substrate: CC(C)(COP(=O)(O)OP(=O)(O)OC[C@H]1O[C@@H](n2cnc3c(N)ncnc32)[C@H](O)[C@@H]1OP(=O)(O)O)[C@@H](O)C(=O)NCCC(=O)NCCSC(=O)C(Cc1ccccc1)C(=O)O; test: purified protein; type: biochemical, Aromatoleum aromaticum; conditions: FAD active site (GGG motif replacing YEG) proposed

Row | Molecule | product formation by HPLC and UV-Vis with purified enzyme [1] | Km (purified protein)
1 | CC(C)(COP(=O)(O)OP(=O)(O)OC[C@H]1O[C@@H](n2cnc3c(N)ncnc32)[C@H](O)[C@@H]1OP(=O)(O)O)[C@@H](O)C(=O)NCCC(=O)NCCSC(=O)/C=C/c1ccccc1 [cinnamoyl-CoA] | formation of a new CoA-thioester over time which was identified as cinnamoyl-CoA by its UV–Vis spectrum | 
2 | Benzylmalonyl-CoA dehydrogenase (IaaF) (Aromatoleum aromaticum EbN1) (protein, fusion protein of IaaF with a N-terminal Strep-tag) MDFDLTDEQRAIQDTFARFSDERIAPQAAALDEARAFPRALFRELAELGFFGMRYPESVGGSGLALSEFCLALSEVARGSMSLAGAVAMQSLMGTKFLQLLGNADIVERLFKPALRGDRIGAICMTEPNAGSDLESIATTATRVDGGYVINGQKTWITSAPVADFFTVFARAGDEKKLTIFLVEKDVPGITVGREIHKMGVWALPTSEVAFDGCFVPDSHRLSKEEGDGEGHLKKTLAEIRIITGAMALGVARAALFAAVRYAGERKQFGKPINRFQAIQLKLADMATGLEAATTLVHRAAWLCDMKRPHHKEAAMAKLFATETAAGICDDAARVLASYGYAMEYPVQRYLRDVRFTLIGGGTSEILKLVIAKEVSS |  | 1.6 ± 0.3 µM

From article PMC8360864, “Benzylmalonyl-CoA dehydrogenase, an enzyme involved in bacterial auxin degradation” (Archives of Microbiology, 2021)
